Results as given in patent US20200277571A1, “METHOD FOR AMPLIFYING CONE PHOTORECEPTORS OR ROD PHOTORECEPTORS USING DORSALIZATION SIGNAL TRANSMITTER OR VENTRALIZATION SIGNAL TRANSMITTER” (RIKEN, priority 2017, published 2020).

How the values were obtained:
[1] = test system: OTX2-positive and OC2-positive cells in retinal tissue produced from human ES cells; assay: Immunostaining for OTX2 and OC2 of retinal tissue, day 70-75, image analysis (Image J); assay type: cell-based; conditions: for number of OTX2-positive cells versus Control (NUC) group / OC2-positive cells: 0.15 nM BMP4, 500 nM Cyclopamine-KAAD; for number of OTX2-positive cells versus Control (NUC) group: 100 nM LDN193189, 100 nM SAG from day 22; for OC2-positive cells: 100 nM LDN193189 or 100 nM SAG from day 22, Control (NUC) about 26.4%; for expression level (intensity of immunostained fluorescence) of OC2 as compared to the Control (NUC) group, on average: 0.15 nM BMP4 or 500 nM Cyclopamine-KAAD from day 22
Source text: Here, the proportion of the number of OC2-positive cells contained in the neural retinal tissue can be determined by those of ordinary skill in the art by performing conventionally possible immunostaining and the like by using an anti OC2 antibody, DAPI and the like, measuring the number of OC2-positive cells, the number of DAPI-positive cells and the like, and identifying the ratio thereof contained in a neural retinal tissue. The expression level of OC2 protein can be determined by those of ordinary skill in the art by performing conventionally possible immunostaining and the like by using an anti OC2 antibody, DAPI and the like, and analyzing the region stained by an anti OC2 antibody by using image analysis software such as Image J and the like to identify the signal intensity of OC2-positive cells. Alternatively, the proportion of the number of OC2-positive cells contained in a neural retinal tissue and/or the OC2 protein expression level of OC2-positive cell may be identified by analysis using conventional flow cytometry using an antibody against OC2 protein.
(§1) A cell aggregate containing a retinal tissue was prepared by the method described in “Kuwahara et al. Nat Commun 2015, 19(6), 6286-” after modification in part. That is, the aforementioned cultured ES cells were individually dispersed using TrypLE Express (Invitrogen), and the individually dispersed human ES cells were suspended in 100 μL of a serum-free medium in a cell non-adhesive 96 well plate (SUMILON spheroid plate, SUMITOMO BAKELITE CO., LTD.) at 9×10^3 cells per well to allow rapid formation of aggregates, after which they were cultured at 37° C., 5% CO2. As the serum-free medium therefor, a serum-free medium obtained by adding 10% KSR, 450 μM 1-monothioglycerol, 1× Chemically defined lipid concentrate, 5 mg/mL BSA, 20 μM Y27632 to a 1:1 mixture of F-12 medium and IMDM medium was used. At 6 days after the start of suspension culture, BMP4 at a final concentration of 1.5 nM was added and suspension culture was continued. A half amount of the culture medium in the well was exchanged with the above-mentioned medium not supplemented with a BMP signal transduction pathway agonist every 3 or 4 days. A cell aggregate containing a retinal tissue at day 18 from the start of suspension culture was cultured in suspension in a serum-free medium (DMEM/F12 medium supplemented with 1% N2 supplement) containing 3 μM CHIR99021 and 5 μM SU5402 for 4 days, namely, up to day 22 from the start of suspension culture. Thereafter, suspension culture of the cell aggregate containing the retinal tissue was continued until it was appropriately used for analysis and the like. As the culture medium during this period, serum-containing media shown in the following to [3] were used and the cell aggregate was cultured under 5% CO2 conditions.
(§2) [1] day 22 to day 38 from the start of suspension culture; DMEM/F12 medium supplemented with 10% fetal calf serum, 1% N2 supplement, and 100 μM taurine. day 38 to day 60 from the start of suspension culture; a 1:3 mixed medium of DMEM/F12 medium supplemented with 10% fetal calf serum, 1% N2 supplement, and 100 μM taurine, and Neurobasal medium supplemented with 10% fetal calf serum, 2% B27 supplement, and 100 μM taurine. after day 60 from the start of suspension culture; Neurobasal medium supplemented with 10% fetal calf serum, 2% B27 supplement, and 100 μM taurine.
[1] Control group (FIG. 2a, f, k, p); according to the method described in Example 1, culture was performed up to day 70 or day 75 from the start of suspension culture and without addition. [2]+BMP group (FIG. 2b, g, 1, q); 0.15 nM BMP4 was added from day 22 from the start of suspension culture to completion of suspension culture, and cultured up to day 70 or day 75 from the start of suspension culture. […]

[2] = test system: photoreceptor precursor and cone photoreceptor precursor in retinal tissue produced from human ES cells; assay: Immunostaining for CRX and TRβ2 and CRX::Venus fluorescence observation of retinal tissue, day 70-75 of suspension culture; assay type: cell-based; conditions: for CRX-positive and TRβ2-positive cells (cone photoreceptor precursor; proportion to DAPI-positive cells): day 70-75, Control (NUC) about 6.8%; for CRX-positive and TRβ2-positive cells (cone photoreceptor precursor; proportion to DAPI-positive cells) / CRX-positive cells (proportion to DAPI-positive cells) / green fluorescence shown by knocked-in CRX::Venus (order of groups) / cone photoreceptor precursor that emerges in initial stage of development (CRX-positive, TRβ2-expressing) versus Control group / CRX-positive cells (photoreceptor precursors) versus retinal tissue of the Control group: 0.15 nM BMP4, 500 nM Cyclopamine-KAAD; for CRX-positive and TRβ2-positive cells (cone photoreceptor precursor; proportion to DAPI-positive cells) / CRX-positive cells (proportion to DAPI-positive cells): 100 nM LDN193189 or 100 nM SAG from day 22; for CRX-positive cells (proportion to DAPI-positive cells): day 70-75 from start of suspension culture, Control (NUC) about 10.6%; for green fluorescence shown by knocked-in CRX::Venus (order of groups): day 70, fluorescence microscope; for green fluorescence shown by knocked-in CRX::Venus (order of groups) / cone photoreceptor precursor that emerges in initial stage of development (CRX-positive, TRβ2-expressing) versus Control group / CRX-positive cells (photoreceptor precursors) versus retinal tissue of the Control group: 100 nM LDN193189, 100 nM SAG from day 22; for cone photoreceptor precursor that emerges in initial stage of development (CRX-positive, TRβ2-expressing) versus Control group: day 70 or 75; for CRX-positive cells (photoreceptor precursors) versus retinal tissue of the Control group / CRX::Venus-positive cells (GFP immunostaining) versus Control (NUC) group: day 75; for CRX-positive cells (photoreceptor precursors) versus retinal tissue of the Control group: immunostained sections; for CRX::Venus-positive cells (GFP immunostaining) versus Control (NUC) group: along with change of ALDH1A3 region, 0.15 nM BMP4, 100 nM LDN193189, 100 nM SAG from day 22
Procedure: CRX::Venus knock-in human ES cells (derived from KhES-1; Nakano, T. et al. Cell Stem Cell 2012, 10(6), 771-785) were cultured according to the methods described in “Ueno, M. et al. PNAS 2006, 103(25), 9554-9559” “Watanabe, K. et al. Nat Biotech 2007, 25, 681-686”. As a medium for culturing human ES cells, DMEM/F12 medium (Sigma) supplemented with 20% KSR (KnockOut™ Serum Replacement; Invitrogen), 0.1 mM 2-mercaptoethanol, 2 mM L-glutamine, ix non-essential amino acid, 7.5 ng/mL bFGF was used.
as §1, §2
[1] Control group (FIG. 2a, f, k, p); according to the method described in Example 1, culture was performed up to day 70 or day 75 from the start of suspension culture and without addition. [2]+BMP group (FIG. 2b, g, 1, q); 0.15 nM BMP4 was added from day 22 from the start of suspension culture to completion of suspension culture, and cultured up to day 70 or day 75 from the start of suspension culture. [3]+Cyclopamine-KAAD group (FIG. 2c, h, m, r); 500 nM Cyclopamine-KAAD was added from day 22 from the start of suspension culture to completion of the suspension culture, and cultured up to day 70 or day 75 from the start of suspension culture. [4]+LDN193189 group (FIG. 2d, i, n, s); 100 nM LDN193189 was added from day 22 from the start of suspension culture to completion of the suspension culture, and cultured up to day 70 or day 75 from the start of suspension culture. [5]+SAG group (FIG. 2e, j, o, t); 100 nM SAG was added from day 22 from the start of suspension culture to completion of the suspension culture, and cultured up to day 70 or day 75 from the start of suspension culture. […]

| Molecule | number of OTX2-positive cells versus Control (NUC) group [1] | OC2-positive cells [1] | expression level (intensity of immunostained fluorescence) of OC2 as compared to the Control (NUC) group, on average [1] | CRX-positive and TRβ2-positive cells (cone photoreceptor precursor; proportion to DAPI-positive cells) [2] | CRX-positive cells (proportion to DAPI-positive cells) [2] | green fluorescence shown by knocked-in CRX::Venus (order of groups) [2] | cone photoreceptor precursor that emerges in initial stage of development (CRX-positive, TRβ2-expressing) versus Control group [2] | CRX-positive cells (photoreceptor precursors) versus retinal tissue of the Control group [2] | CRX::Venus-positive cells (GFP immunostaining) versus Control (NUC) group [2] |
| --- | --- | --- | --- | --- | --- | --- | --- | --- | --- |
| CC1=C2C[C@H]3[C@@H](CC=C4CC(=O)CC[C@@]43C)[C@@H]2CC[C@]12O[C@@H]1C[C@H](C)CN(CCNC(=O)CCCCCNC(=O)CCc3ccccc3)[C@H]1[C@H]2C [Cyclopamine-KAAD] | higher | ~16.7% | about 64% | ~8.1% | ~14.1% | observed more in the order of +BMP4 group, +Cyclopamine-KAAD group, Control group, +LDN193189 group, +SAG group | observed more | Slightly more | – |
| c1ccc2c(-c3cnn4cc(-c5ccc(N6CCNCC6)cc5)cnc34)ccnc2c1 [LDN193189, 4-[6-(4-piperazin-1-ylphenyl)pyrazolo[1,5-a]pyrimidin-3-yl]quinoline] | lower | ~35.1% | – | ~4.5% | about 6.8% | observed more in the order of +BMP4 group, +Cyclopamine-KAAD group, Control group, +LDN193189 group, +SAG group | less | less | decreased |
| CNC1CCC(N(Cc2cccc(-c3ccncc3)c2)C(=O)c2sc3ccccc3c2Cl)CC1 (stereo not drawn) [SAG] | lower | ~27.3% | – | ~3.2% | ~5.1% | observed more in the order of +BMP4 group, +Cyclopamine-KAAD group, Control group, +LDN193189 group, +SAG group | less | lesser | decreased |
| BMP4: BMP protein; BMP signal transduction pathway agonist used as dorsalization signal transmitter | higher | about 16.0% | about 36% | about 10.8% | about 17.0% | observed more in the order of +BMP4 group, +Cyclopamine-KAAD group, Control group, +LDN193189 group, +SAG group | observed more | clearly higher | increased |
